Drawing on US8299267B2, “(3-hydroxy-4-amino-butan-2-yl) -3- (2-thiazol-2-yl-pyrrolidine-1-carbonyl) benzamide derivatives and related compounds as beta-secretase inhibitors for treating” (CoMentis, Inc., priority 2007, dated 2012), this text covers IC50 and Ki for 15 compounds.

SMILES strings stand for the structures. A value given as a limit tells only on which side of the number the result lay.

Assay [1] relates to Aβ production in Chinese hamster ovary cells that over-express human APP695 with the London and Swedish mutations. Kind of assay: Cellular Aβ IC50 determination (Aβ40 sandwich ELISA). The following applies: Cricetulus griseus; Aβ40 in CHO cells over-expressing human APP695, 24 h incubation. In kind it is cell-based. In a few lines: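 APP695 (London/Swedish)-overexpressing CHO cells were treated 48 h after seeding with serial dilutions from near 4 μM top concentration (0.4% DMSO) for 24 h at 37 °C. Secreted Aβ40 was quantified by sandwich ELISA relative to controls and fit to a 4-parameter IC50 model.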

Another assay concerns the target memapsin 2 (Homo sapiens, UniProt P56817). Kind of assay: Inhibition of memapsin 2 beta-secretase activity toward fluorogenic substrate FS-2. Type of assay: biochemical. The following applies: memapsin 2, pH 4, 37° C., 20 minutes pre-incubation, substrate FS-2; read-out: M2Ki. In a few lines: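 Memapsin 2 was preincubated with compound 20 min at pH 4, 37 °C, then reacted with fluorogenic substrate FS-2 (MCA-SEVNLDAEFK-DNP), an APP-derived Swedish-variant peptide. Inhibition was followed kinetically by fluorescence.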

A further assay addresses cathepsin D (Homo sapiens, UniProt P07339). Kind of assay: Inhibition of cathepsin D activity (substrate peptide ELDLAVEFWHDR, MALDI-TOF). Type of assay: biochemical. To be noted: cathepsin D, pH 4.1, 37 degrees C.; read-out: CDKi. Here is the method: [The procedure below names another target; the source lists this target under the same test.] (§1) A substrate peptide NH3-ELDLAVEFWHDR-CO2 (SEQ ID NO.: 1) was dissolved at 2 mg/mL in 10% glacial acetic acid and diluted into 0.009M NaOH to obtain μM concentration at pH 4.1. After equilibration at 37 degrees C., the reactions were initiated by the addition of an aliquot of memapsin 2. Aliquots were removed at time intervals, and combined with an equal volume of MALDI-TOF matrix (α-hydroxycinnamic acid in acetone, 20 mg/mL) and immediately spotted in duplicate onto a stainless-steel MALDI sample plate. MALDI-TOF mass spectrometry was performed on a PE Biosystems Voyager DE. The instrument was operated at 25,000 accelerating volts in positive mode with a 150 ns delay. Ions with a mass-to-charge ratio (m/z) were detected in the range of 650-2000 atomic mass units. Data were analyzed by the Voyager Data Explorer module to obtain ion intensity data for mass species of substrates and corresponding products in a given mixture. Relative product formation was calculated as the ratio of signal intensity of the product to the sum of signal intensities of both product and the corresponding substrate. Relative product formed per unit time was obtained from non-linear regression analysis of the data representing the initial 15% formation of product using the model: 1−e^−kT, where k was the relative hydrolytic rate constant and T was time in seconds. Initial rates were expressed relative to uninhibited controls and fit to a tight-binding model of competitive inhibition as above.

For the next assay, the target named is T1, memapsin 1 (Homo sapiens, UniProt Q9Y5Z0).
T1 sequence (Q9Y5Z0 63-518): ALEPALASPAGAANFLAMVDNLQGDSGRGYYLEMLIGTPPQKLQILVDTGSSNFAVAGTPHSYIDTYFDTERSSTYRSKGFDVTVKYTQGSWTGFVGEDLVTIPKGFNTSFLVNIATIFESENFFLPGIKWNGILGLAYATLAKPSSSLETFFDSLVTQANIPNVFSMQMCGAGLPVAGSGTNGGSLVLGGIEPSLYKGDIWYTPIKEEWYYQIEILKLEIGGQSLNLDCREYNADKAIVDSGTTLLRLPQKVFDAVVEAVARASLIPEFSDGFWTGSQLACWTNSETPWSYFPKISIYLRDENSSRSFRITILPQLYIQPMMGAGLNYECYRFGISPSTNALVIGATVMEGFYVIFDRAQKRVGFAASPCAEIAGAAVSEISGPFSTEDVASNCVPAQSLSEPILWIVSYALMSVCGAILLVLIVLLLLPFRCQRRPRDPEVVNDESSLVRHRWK
Kind of assay: Inhibition of memapsin 1 beta-secretase activity (substrate peptide ELDLAVEFWHDR, MALDI-TOF). To be noted: memapsin 1, pH 4.1, 37 degrees C.; read-out: M1Ki. In kind it is biochemical. The procedure: [The procedure below names another target; the source lists this target under the same test.] as §1

cathepsin D, sequence (P07339 65-412, species assumed): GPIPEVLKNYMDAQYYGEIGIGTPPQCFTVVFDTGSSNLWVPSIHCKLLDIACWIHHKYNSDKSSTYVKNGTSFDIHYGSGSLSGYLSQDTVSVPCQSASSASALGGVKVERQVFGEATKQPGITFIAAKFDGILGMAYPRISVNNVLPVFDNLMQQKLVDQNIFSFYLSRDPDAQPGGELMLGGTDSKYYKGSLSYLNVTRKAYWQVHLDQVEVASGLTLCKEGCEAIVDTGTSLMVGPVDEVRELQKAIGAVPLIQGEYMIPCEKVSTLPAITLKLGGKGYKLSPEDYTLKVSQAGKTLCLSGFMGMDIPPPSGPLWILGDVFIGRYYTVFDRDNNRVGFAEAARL
memapsin 2, sequence (P56817 46-501): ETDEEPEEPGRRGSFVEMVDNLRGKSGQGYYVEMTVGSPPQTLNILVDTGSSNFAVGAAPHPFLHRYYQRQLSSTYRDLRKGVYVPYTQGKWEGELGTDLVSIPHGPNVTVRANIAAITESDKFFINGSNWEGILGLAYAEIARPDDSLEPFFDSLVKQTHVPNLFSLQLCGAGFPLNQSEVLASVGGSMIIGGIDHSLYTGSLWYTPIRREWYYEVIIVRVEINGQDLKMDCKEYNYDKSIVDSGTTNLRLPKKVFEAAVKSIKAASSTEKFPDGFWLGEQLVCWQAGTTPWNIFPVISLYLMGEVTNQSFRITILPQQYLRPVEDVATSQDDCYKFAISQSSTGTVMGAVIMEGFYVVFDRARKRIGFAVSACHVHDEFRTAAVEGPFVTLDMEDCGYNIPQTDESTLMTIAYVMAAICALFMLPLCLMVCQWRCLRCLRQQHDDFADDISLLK

`Cc1csc([C@H]2CCCN2C(=O)c2cccc(C(=O)N[C@@H](Cc3ccccc3)[C@H](O)CNCc3cncc(C(C)C)c3)c2)n1` [Compound 2, N-((2S,3R)-3-hydroxy-4-((5-isopropylpyridin-3-yl)methylamino)-1-phenylbutan-2-yl)-3-((R)-2-(4-methylthiazol-2-yl)pyrrolidine-1-carbonyl)benzamide] showed an IC50 in assay [1] of under 300 nM. The Ki at memapsin 2 is under 100 nM; on cathepsin D, 301 to 500 nM; on memapsin 1, under 300 nM.
Regarding `COc1cccc(CNC[C@@H](O)[C@H](Cc2ccccc2)NC(=O)c2cc(C)cc(C(=O)N3CCC[C@@H]3c3nc(C)cs3)c2)c1` [Compound 6, N-((2S,3R)-3-hydroxy-4-(3-methoxybenzylamino)-1-phenylbutan-2-yl)-3-methyl-5-((R)-2-(4-methylthiazol-2-yl)pyrrolidine-1-carbonyl)benzamide], the IC50 in assay [1] was under 300 nM. In addition, the Ki was under 100 nM at memapsin 2, 301 to 500 nM on cathepsin D and over 501 nM on memapsin 1.
In assay [1], `Cc1csc([C@H]2CCCN2C(=O)c2cccc(C(=O)N[C@@H](Cc3ccccc3)[C@H](O)CNCc3cccc(C(F)(F)F)c3)c2)n1` [Compound 9, N-((2S,3R)-3-hydroxy-1-phenyl-4-(3-(trifluoromethyl)benzylamino)butan-2-yl)-3-((R)-2-(4-methylthiazol-2-yl)pyrrolidine-1-carbonyl)benzamide] displayed an IC50 of under 300 nM. The values for the Ki at memapsin 2, at cathepsin D and at memapsin 1 were under 100 nM, over 501 nM and 301 to 500 nM, respectively.
For the compound `Cc1csc([C@H]2CCCN2C(=O)c2cccc(C(=O)N[C@@H](Cc3ccccc3)[C@H](O)CNCc3cccc(C(C)(C)C)c3)c2)n1` [Compound 10, N-((2S,3R)-4-(3-tert-butylbenzylamino)-3-hydroxy-1-phenylbutan-2-yl)-3-((R)-2-(4-methylthiazol-2-yl)pyrrolidine-1-carbonyl)benzamide], the IC50 in assay [1] was under 300 nM. In addition, the Ki at memapsin 2 was under 100 nM; at cathepsin D it was over 501 nM; on memapsin 1, 301 to 500 nM.
In assay [1], `Cc1cc(C(=O)N[C@@H](Cc2ccccc2)[C@H](O)CNCc2cccc(C(F)(F)F)c2)cc(C(=O)N2CCC[C@@H]2c2nc(C)cs2)c1` [Compound 12, N-((2S,3R)-3-hydroxy-1-phenyl-4-(3-(trifluoromethyl)benzylamino)butan-2-yl)-3-methyl-5-((R)-2-(4-methylthiazol-2-yl)pyrrolidine-1-carbonyl)benzamide] returned an IC50 of under 300 nM. Further, the results for the Ki at memapsin 2, on cathepsin D and on memapsin 1 were under 100 nM, over 501 nM and under 300 nM, respectively.
For `Cc1coc([C@H]2CCCN2C(=O)c2cc(C(=O)N[C@@H](Cc3ccccc3)[C@H](O)CNCc3cncc(C(C)(C)F)c3)cc(-c3ncco3)c2)n1` [Compound 90, N-((2S,3R)-4-((5-(2-fluoropropan-2-yl)pyridin-3-yl)methylamino)-3-hydroxy-1-phenylbutan-2-yl)-3-((R)-2-(4-methyloxazol-2-yl)pyrrolidine-1-carbonyl)-5-(oxazol-2-yl)benzamide], the IC50 in assay [1] was under 300 nM. Moreover, at memapsin 2, the Ki was under 100 nM.
As to `Cc1csc([C@H]2CCCN2C(=O)c2cc(C(=O)N[C@@H](Cc3ccccc3)[C@H](O)CNCc3cccc(C(F)(F)F)c3)cc(-c3cccc(Cl)c3)n2)n1` [Compound 91, 2-(3-chlorophenyl)-N-((2S,3R)-3-hydroxy-1-phenyl-4-(3-(trifluoromethyl)benzylamino)butan-2-yl)-6-((R)-2-(4-methylthiazol-2-yl)pyrrolidine-1-carbonyl)isonicotinamide], the IC50 in assay [1] is 301 to 500 nM. Further, at memapsin 2, the Ki is under 100 nM.
Compound `Cc1coc([C@H]2CCCN2C(=O)c2cc(C(=O)N[C@@H](Cc3ccccc3)[C@H](O)CNCc3cncc(C(C)C)c3)cc(N(C)C)c2)n1` [Compound 92, 3-(dimethylamino)-N-((2S,3R)-3-hydroxy-4-((5-isopropylpyridin-3-yl)methylamino)-1-phenylbutan-2-yl)-5-((R)-2-(4-methyloxazol-2-yl)pyrrolidine-1-carbonyl)benzamide] returned an IC50 in assay [1] of under 300 nM. In addition, at memapsin 2, the Ki is under 100 nM.
On to `COc1cc(C(=O)N[C@@H](Cc2ccccc2)[C@H](O)CNCc2cccc(C(F)(F)F)c2)cc(C(=O)N2CCC[C@@H]2c2nc(C)co2)c1` [Compound 93, N-((2S,3R)-3-hydroxy-1-phenyl-4-(3-(trifluoromethyl)benzylamino)butan-2-yl)-3-methoxy-5-((R)-2-(4-methyloxazol-2-yl)pyrrolidine-1-carbonyl)benzamide], for which the IC50 in assay [1] was under 300 nM. The Ki on memapsin 2 is under 100 nM.
In turn, `Cc1coc([C@H]2CCCN2C(=O)c2cc(C(=O)N[C@@H](Cc3ccccc3)[C@H](O)CNCc3cccc(C(F)(F)F)c3)ccn2)n1` [Compound 94, N-((2S,3R)-3-hydroxy-1-phenyl-4-(3-(trifluoromethyl)benzylamino)butan-2-yl)-2-((R)-2-(4-methyloxazol-2-yl)pyrrolidine-1-carbonyl)isonicotinamide] returned an IC50 in assay [1] of under 300 nM. Besides, on memapsin 2, the Ki was under 100 nM.
The corresponding values for `Cc1coc([C@H]2CCCN2C(=O)c2cc(CF)cc(C(=O)N[C@@H](Cc3ccccc3)[C@H](O)CNCc3cccc(C(C)(C)C)c3)c2)n1` [Compound 95, N-((2S,3R)-4-(3-tert-butylbenzylamino)-3-hydroxy-1-phenylbutan-2-yl)-3-(fluoromethyl)-5-((R)-2-(4-methyloxazol-2-yl)pyrrolidine-1-carbonyl)benzamide] are under 300 nM and under 100 nM.
The compound `Cc1coc([C@H]2CCCN2C(=O)c2cccc(C(=O)N[C@@H](Cc3ccccc3)[C@H](O)CNCc3cncc(C(C)(F)F)c3)c2)n1` [Compound 102, N-((2S,3R)-4-((5-(1,1-difluoroethyl)pyridin-3-yl)methylamino)-3-hydroxy-1-phenylbutan-2-yl)-3-((R)-2-(4-methyloxazol-2-yl)pyrrolidine-1-carbonyl)benzamide] returned an IC50 in assay [1] of under 300 nM. In addition, on memapsin 2, the Ki was under 100 nM.
The corresponding values for `Cc1coc([C@H]2CCCN2C(=O)c2cccc(C(=O)N[C@@H](Cc3ccccc3)[C@H](O)CNCc3cncc(C(F)(F)F)c3)c2)n1` [Compound 103, N-((2S,3R)-3-hydroxy-1-phenyl-4-((5-(trifluoromethyl)pyridin-3-yl)methylamino)butan-2-yl)-3-((R)-2-(4-methyloxazol-2-yl)pyrrolidine-1-carbonyl)benzamide] are under 300 nM and under 100 nM.
`Cc1cc(C(=O)N[C@@H](Cc2ccccc2)[C@H](O)CNCc2cccc(C(C)(F)F)c2)cc(C(=O)N2CCC[C@@H]2c2nc(C)co2)c1` [Compound 104, N-((2S,3R)-4-(3-(1,1-difluoroethyl)benzylamino)-3-hydroxy-1-phenylbutan-2-yl)-3-methyl-5-((R)-2-(4-methyloxazol-2-yl)pyrrolidine-1-carbonyl)benzamide] registered an IC50 in assay [1] of under 300 nM. In addition, the Ki on memapsin 2 is under 100 nM.
The corresponding values for `C=C(C)c1cccc(CNC[C@@H](O)[C@H](Cc2ccccc2)NC(=O)c2cccc(C(=O)N3CCC[C@@H]3c3nc(C)co3)c2)c1` [Compound 105, N-((2S,3R)-3-hydroxy-1-phenyl-4-(3-(prop-1-en-2-yl)benzylamino)butan-2-yl)-3-((R)-2-(4-methyloxazol-2-yl)pyrrolidine-1-carbonyl)benzamide] are under 300 nM and under 100 nM.
